Earlier results as cited in publication PMC9762682, “Tocotrienols: Exciting Biological and Pharmacological Properties of Tocotrienols and Naturally Occurring Compounds, Part II” (Annals of clinical case reports, 2022).
Like-named read-outs stand apart in the source and are kept apart here. Marks after values point to notes of the source that are not given here.

Legend:
[1] = set-up: method as in ref 14 = [14]; PMID 27493840; doi:10.4172/2155-9880.1000434; 14. Qureshi AA , Khan DA , Saleem S , Silswal N , Trias AM , Tan B , Pharmacokinetics and bioavailability of Annatto δ-tocotrienol in healthy fed subjects . J Clin Exp Cardiol . 2015; 6 : 11 . 10.417; conditions: for time of appearance in the plasma: after δ-tocotrienol administration to well-fed subjects; for Elimination of Half-life time (t1/2) / Elimination rate constant (ke) / Plasma Peak Concentration (Cmax) / Time to achieve plasma peak (Tmax): healthy fed subjects
[2] = set-up: method as in ref 16 = [16]; PMID 27493840; doi:10.4172/2155-9880.1000434; 16. Qureshi AA , Khan DA , Silswal N , Saleem S , Qureshi N . Evaluation of pharmacokinetics and bioavailability of higher doses of δ-tocotrienol in healthy fed humans . J Clin Exp Cardiol . 2016; 7
[3] = plasma tocol after single 125 mg δ-tocotrienol dose
[4] = plasma tocol after single 250 mg δ-tocotrienol dose
[5] = plasma tocol after single 500 mg δ-tocotrienol dose
[6] = 0 Hr., single dose 750 mg δ-tocotrienol
[7] = 0 Hr., single dose 1000 mg δ-tocotrienol
[8] = 1 hr., single dose 750 mg δ-tocotrienol
[9] = 1 hr., single dose 1000 mg δ-tocotrienol
[10] = 2 hr., single dose 750 mg δ-tocotrienol
[11] = 2 hr., single dose 1000 mg δ-tocotrienol
[12] = 4 hr., single dose 750 mg δ-tocotrienol
[13] = 4 hr., single dose 1000 mg δ-tocotrienol
[14] = 6 hr., single dose 750 mg δ-tocotrienol
[15] = 6 hr., single dose 1000 mg δ-tocotrienol
[16] = 8 hr., single dose 750 mg δ-tocotrienol
[17] = 8 hr., single dose 1000 mg δ-tocotrienol
[18] = single dose 750 mg δ-tocotrienol
[19] = single dose 1000 mg δ-tocotrienol
[20] = plasma tocol after single dose 750 mg δ-tocotrienol
[21] = plasma tocol after single dose 1000 mg δ-tocotrienol

Structure (SMILES)	time of appearance in the plasma [1] [h]	Elimination of Half-life time (t1/2) [1, 3]	Elimination rate constant (ke) [1, 3]	Plasma Peak Concentration (Cmax) [1, 3]	Time to achieve plasma peak (Tmax) [1, 3] [h]	Elimination rate constant (ke) [1, 4]	Elimination of Half-life time (t1/2) [1, 5]	Elimination rate constant (ke) [1, 5]	Plasma Peak Concentration (Cmax) [1, 5]	Time to achieve plasma peak (Tmax) [1, 5] [h]	plasma tocol level [2, 6] [ng/mL]	plasma tocol level [2, 7] [ng/mL]	plasma tocol level [2, 8] [ng/mL]	plasma tocol level [2, 9] [ng/mL]	plasma tocol level [2, 10] [ng/mL]	plasma tocol level [2, 11] [ng/mL]	plasma tocol level [2, 12] [ng/mL]	plasma tocol level [2, 13] [ng/mL]	plasma tocol level [2, 14] [ng/mL]	plasma tocol level [2, 15] [ng/mL]	other results
Cc1c(O)cc2c(c1C)O[C@](C)(CCC[C@H](C)CCC[C@H](C)CCCC(C)C)CC2 [γ-Tocopherol]	> 2	2.45 ± 0.37^a h	0.184 ± 0.121^a h-1	507.64 ± 24.68^a ng/mL	5.46 ± 0.93	0.146 ± 0.013^b h-1	4.99 ± 0.88^b h	0.126 ± 0.026^a h-1	605.64 ± 48.17^b ng/mL	2.82 ± 0.41	319 ± 30	330 ± 34	404 ± 44	412 ± 17	433 ± 26	457 ± 33	547 ± 12	589 ± 39	273 ± 67	241 ± 28	Elimination of Half-life time (t1/2) [1, 4]: 5.17 ± 1.06^b h; Plasma Peak Concentration (Cmax) [1, 4]: 643.36 ± 37.26^b ng/mL; Time to achieve plasma peak (Tmax) [1, 4]: 3.00 h; plasma tocol level [2, 16]: 212 ± 16 ng/mL; plasma tocol level [2, 17]: 183 ± 14 ng/mL; Total tocols (sum of 0-8 h) [2, 18]: 2188 ng/mL; Total tocols (sum of 0-8 h) ([2]; single dose 750 mg δ-tocotrienol, listed as γ-tocopherol): 5544 ng/mL; Total tocols (sum of 0-8 h) [2, 19]: 2212 ng/mL
Cc1cc(O)c(C)c2c1O[C@](C)(CCC[C@H](C)CCC[C@H](C)CCCC(C)C)CC2 [β-Tocopherol]	> 2	1.82 ± 0.23 h	1.247 ± 0.073^a h-1	956.09 ± 70.06^a ng/mL	5.18 ± 1.17	0.489 ± 0.063^b h-1	3.27 ± 0.61^a h	0.275 ± 0.023^c h-1	1045.09 ± 147.81^a ng/mL	3.09 ± 0.32	542 ± 11	639 ± 38	525 ± 54	763 ± 69	599 ± 14	1025 ± 58	704 ± 29	1525 ± 32	621 ± 28	717 ± 56	Elimination of Half-life time (t1/2) [1, 4]: 3.97 ± 0.66^a h; Plasma Peak Concentration (Cmax) [1, 4]: 949.91 ± 126.37^a ng/mL; Time to achieve plasma peak (Tmax) [1, 4]: 3.09 ± 0.30 h; plasma tocol level [2, 16]: 278 ± 16 ng/mL; plasma tocol level [2, 17]: 516 ± 51 ng/mL; Total tocols (sum of 0-8 h) [2, 18]: 3269 ng/mL; Total tocols (sum of 0-8 h) [2, 19]: 5185 ng/mL
CC(C)=CCC/C(C)=C/CC/C(C)=C/CC[C@]1(C)CCc2cc(O)c(C)c(C)c2O1 [γ-Tocotrienol]	> 2	3.82 ± 0.99^a h	0.113 ± 0.026^a h-1	281.34 ± 21.22^a ng/mL	3.00	0.133 ± 0.037^a h-1	2.25 ± 0.32^c h	0.097 ± 0.021^b h-1	1224.64 ± 61.28^c ng/mL	3.55 ± 0.52	795 ± 19	843 ± 13	1035 ± 10	1065 ± 7	1183 ± 16	1251 ± 32	1352 ± 23	1387 ± 10	361 ± 74	484 ± 17	Time to achieve plasma peak (Tmax) [1, 4]: 3.00 h; plasma tocol level [2, 16]: 329 ± 17 ng/mL; plasma tocol level [2, 17]: 374 ± 27 ng/mL; Area Under the Curve-t0 - ∞ (AUC0-∞) [2, 20]: 7895.14 ± 73.43^b ng/ml; Elimination of Half-life time (t1/2) [2, 20]: 1.96 ± 0.06^b h; Elimination rate constant (ke) [2, 20]: 0.353 ± 0.125^a h-1; Peak Plasma Concentration (Cmax) [2, 20]: 1352.41 ± 28.14^b ng/ml; Time to achieve plasma peak (Tmax) [2, 20]: 4.00^a h; Area Under the Curve-t0 - ∞ (AUC0-∞) [2, 21]: 8626.41 ± 277.17^b ng/ml; Elimination of Half-life time (t1/2) [2, 21]: 2.12 ± 0.14^b h; Elimination rate constant (ke) [2, 21]: 0.328 ± 0.286^a h-1; Time to achieve plasma peak (Tmax) [2, 21]: 4.00^a h; Total tocols (sum of 0-8 h) [2, 18]: 5055 ng/mL; Total tocols (sum of 0-8 h) [2, 19]: 5404 ng/mL
CC(C)=CCC/C(C)=C/CC/C(C)=C/CC[C@]1(C)CCc2c(C)c(O)cc(C)c2O1 [β-Tocotrienol]	> 2	3.92 ± 0.86^a h	0.542 ± 0.062^a h-1	979.00 ± 79.45^a ng/mL	4.00	0.404 ± 0.032^b h-1	4.39 ± 0.63^a h	0.192 ± 0.014^c h-1	1279.00 ± 116.44^c ng/mL	3.00	1145 ± 61	1220 ± 93	1565 ± 62	1516 ± 21	1568 ± 77	1830 ± 91	1885 ± 91	1937 ± 72	1538 ± 22	1315 ± 48	Elimination of Half-life time (t1/2) [1, 4]: 3.90 ± 0.79^a h; Plasma Peak Concentration (Cmax) [1, 4]: 1083.73 ± 82.26^b ng/mL; plasma tocol level [2, 16]: 137 ± 102 ng/mL; plasma tocol level [2, 17]: 519 ± 20 ng/mL; Area Under the Curve-t0 - t8 (AUC0-8) [2, 20]: 11473.96 ± 316.15^c ng/ml; Area Under the Curve-t0 - ∞ (AUC0-∞) [2, 20]: 11709.23 ± 459.66^c ng/ml; Elimination of Half-life time (t1/2) [2, 20]: 1.02 ± 0.34^c h; Elimination rate constant (ke) [2, 20]: 0.681 ± 0.103^b h-1; Peak Plasma Concentration (Cmax) [2, 20]: 1885.20 ± 90.95^c ng/ml; Time to achieve plasma peak (Tmax) [2, 20]: 4.00 ^a h; Elimination of Half-life time (t1/2) [2, 21]: 2.11 ± 0.03^b h; Elimination rate constant (ke) [2, 21]: 0.327 ± 0.167^a h-1; Peak Plasma Concentration (Cmax) [2, 21]: 1948.13 ± 66.43^c ng/ml; Time to achieve plasma peak (Tmax) [2, 21]: 3.33 ± 1.16^a h; Total tocols (sum of 0-8 h) [2, 18]: 7838 ng/mL; Total tocols (sum of 0-8 h) [2, 19]: 8337 ng/mL
Cc1cc(O)cc2c1O[C@](C)(CCC[C@H](C)CCC[C@H](C)CCCC(C)C)CC2 [δ-Tocopherol]	> 2	3.25 ± 0.79^a h	0.118 ± 0.032^a h-1	341.18 ± 62.19^a ng/mL	6.00	0.076 ± 0.008^b h-1	3.58 ± 0.67^a h	0.183 ± 0.027^c h-1	1027.73 ± 71.93^c ng/mL	3.00	894 ± 69	888 ± 22	949 ± 11	986 ± 18	1195 ± 69	1266 ± 25	1348 ± 93	1473 ± 71	726 ± 51	765 ± 44	Elimination of Half-life time (t1/2) [1, 4]: 5.22 ± 0.62^b h; Plasma Peak Concentration (Cmax) [1, 4]: 756.27 ± 72.70^b ng/mL; Time to achieve plasma peak (Tmax) [1, 4]: 4.18 ± 0.60 h; plasma tocol level [2, 16]: 432 ± 45 ng/mL; plasma tocol level [2, 17]: 500 ± 25 ng/mL; Total tocols (sum of 0-8 h) [2, 18]: 5544 ng/mL; Total tocols (sum of 0-8 h) ([2]; single dose 750 mg δ-tocotrienol, listed as δ-tocopherol): 13117 ng/mL; Total tocols (sum of 0-8 h) [2, 19]: 5878 ng/mL
